Molecular target: purified recombinant IDO (Homo sapiens, UniProt P14902)
Assay: Enzymatic IDO inhibition assay (Takikawa et al., modified; kynurenine by HPLC)
Assay type: biochemical
Details: result in words; oxidized dimeric analogues
Protocol: The enzymatic inhibition assays were performed as described by Takikawa et al. [Takikawa, O.; Kuroiwa, T.; Yamazaki, F.; Kido, R. J Biol Chem, 1988, 263, 2041-2048.] with some modifications. Briefly, the reaction mixture (100 μl) contained potassium phosphate buffer (100 mM, pH 6.5) ascorbic acid (20 mM), catalase (200 units/ml), methylene blue (10 μM), purified recombinant IDO (2 ng/μl), and L-Trp (200 μM). The inhibitors were serially diluted ranging from 0.1 to 1000 μM. The reaction was carried out at 37° C. for 60 min and stopped by the addition of 30% (w/v) trichloroacetic acid (40 μl). To convert the product of Trp dioxygenation by IDO, N-formylkynurenine, to spectroscopically detectable kynurenine, the tubes were incubated at 50° C. for 30 min, followed by a centrifugation at 10000 g for 20 min. Lastly, 100 μl of supernatant from each probe was transfered to another tube for HPLC analysis. The mobile phase for HPLC measurements consisted of 50% sodium citrate buffer (40 mM, pH 2.25) and 50% methanol with 400 μM SDS. The flow rate through the S5-ODS1 column was chosen to be 1 ml/min, and kynurenine was detected at a wavelength of 365 nm.

Sequence of purified recombinant IDO (P14902 whole entry): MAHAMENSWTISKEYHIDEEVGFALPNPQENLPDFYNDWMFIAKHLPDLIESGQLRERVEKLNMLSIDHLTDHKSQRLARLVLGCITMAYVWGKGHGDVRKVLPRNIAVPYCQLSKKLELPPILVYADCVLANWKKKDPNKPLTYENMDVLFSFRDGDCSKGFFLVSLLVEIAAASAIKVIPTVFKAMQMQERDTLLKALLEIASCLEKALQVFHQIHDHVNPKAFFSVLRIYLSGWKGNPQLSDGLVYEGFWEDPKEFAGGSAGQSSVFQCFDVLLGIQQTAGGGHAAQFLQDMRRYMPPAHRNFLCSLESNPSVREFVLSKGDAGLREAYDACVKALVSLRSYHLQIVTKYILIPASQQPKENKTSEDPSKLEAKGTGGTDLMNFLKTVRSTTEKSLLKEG

Row | SMILES | activity in vitro
1 | CC(C)/C=C1/C=C(C2=C/C(=N\C(C)C)c3ccccc3C2=O)C(=O)c2ccccc21 [Example 23] | excellent activity
2 | CCC(CC)CC1C=C(C2=CC(CC(CC)CC)c3ccccc3C2=O)C(=O)c2ccccc21 (centres unmarked) [Example 24] | excellent activity

Source: patent publication US20110112282A1, “IDO INHIBITORS AND THERAPEUTIC USES THEREOF” (priority 2008, published 2011)
